Source: patent publication US10278973B2, “Hydroxyl purine compounds and use thereof” (GUANGDONG RAYNOVENT BIOTECH CO., LTD., priority 2015, dated 2019)
Read-outs that look alike come from different tables or passages of the source.

Key:
[1] = system: LPS-induced expression of TNF-α in rat blood; test: In vitro effect of the compound on LPS-induced expression of TNF-α in rat blood (ELISA); format: cell-based, Sprague Dawley rats; design: key to TNF-α inhibitory ratio: 80% ≥ + > 60%; ++ > 80%; — N/A; conditions: final compound concentration 100 μM, 5 hours, plasma TNF-α by ELISA; for inhibition at 100 µM: read-out: TNF-α inhibitory ratio
Excerpt: Experimental Example 2: In Vitro Evaluation of the Effect of the Compound on LPS-Induced Expression of TNF-α in Rat Blood
Experimental Objectives: To detect in vitro the effect of the test compound on LPS-induced expression of TNF-α in rat blood and evaluate the inhibitory effect of the compound on LPS-induced expression of TNF-α in rat blood.
Sprague Dawley rats (male, 210-260 g, 8-10 weeks old, Shanghai Slack)
Rat TNF-alpha Quantikine ELISA Kit (R & D, #SRTA00)
A solution of the test compound with a concentration of 1 mM was prepared and 40 μL (final compound concentration was 100 μM) was added to a 48-well cell culture plate. Rats were anesthetized with isoflurane and blood was collected from the heart (heparin anticoagulation). The blood was added to the 48-well cell plate to which the test compound has been added, with 320 μL per well. The 48-well plate was placed in a cell incubator, incubated for 30 minutes and then removed, added with 40 μL LPS solution (100 μg/mL), mixed and placed in the incubator to continue the incubation. 5 hours later, the 48-well plate was removed and the blood sample was transferred to a 1.5 mL centrifuge tube and centrifuged in a centrifuge (4,500 rpm, 4° C., 5 minutes). The plasma was separated from the supernatant, frozen quickly after packing and stored in −80° C. refrigerator. The next day the R&D ELISA kit was used to measure TNF-α levels in plasma samples according to the instructions of the kit.

[2] = target: T1, Full length human PDE2A protease (Homo sapiens, UniProt O00408); test: In vitro evaluation of PDE2 phosphodiesterase inhibitory activity (Transcreener AMP2/GMP2 fluorescence polarization); format: biochemical
T1 construct: Full length human PDE2A protease; GST (N); host or cells: insect Sf9 cells (baculovirus)
T1 sequence (O00408 whole entry): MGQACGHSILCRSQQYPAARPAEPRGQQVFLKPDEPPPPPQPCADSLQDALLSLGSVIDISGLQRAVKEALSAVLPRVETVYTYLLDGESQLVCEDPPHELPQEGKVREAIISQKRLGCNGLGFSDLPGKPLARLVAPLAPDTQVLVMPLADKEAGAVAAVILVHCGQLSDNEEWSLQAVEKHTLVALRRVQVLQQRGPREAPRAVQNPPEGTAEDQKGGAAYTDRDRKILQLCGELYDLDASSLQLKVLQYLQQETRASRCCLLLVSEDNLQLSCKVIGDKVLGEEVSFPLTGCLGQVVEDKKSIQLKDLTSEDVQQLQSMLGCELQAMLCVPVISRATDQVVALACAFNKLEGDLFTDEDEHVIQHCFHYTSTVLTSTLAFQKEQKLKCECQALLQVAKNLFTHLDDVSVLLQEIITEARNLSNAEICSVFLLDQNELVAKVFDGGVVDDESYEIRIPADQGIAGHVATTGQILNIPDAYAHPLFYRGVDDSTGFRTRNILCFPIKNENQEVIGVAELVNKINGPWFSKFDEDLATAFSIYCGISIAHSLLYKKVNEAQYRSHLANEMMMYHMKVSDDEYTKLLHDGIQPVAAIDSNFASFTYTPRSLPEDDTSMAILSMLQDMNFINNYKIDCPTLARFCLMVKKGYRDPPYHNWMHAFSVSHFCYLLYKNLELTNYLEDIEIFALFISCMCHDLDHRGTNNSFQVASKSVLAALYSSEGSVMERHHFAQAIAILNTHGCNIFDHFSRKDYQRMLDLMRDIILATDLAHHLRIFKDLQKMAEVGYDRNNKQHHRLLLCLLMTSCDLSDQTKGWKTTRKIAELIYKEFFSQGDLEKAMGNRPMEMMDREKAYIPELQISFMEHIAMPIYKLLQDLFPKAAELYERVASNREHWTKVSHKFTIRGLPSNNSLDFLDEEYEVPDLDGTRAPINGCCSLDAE
Procedure: In Vitro Evaluation of PDE2 Phosphodiesterase Inhibitory Activity Experimental objectives: To detect the concentration of AMP/GMP produced in the reaction system by measuring the fluorescence intensity of the fluorescent dye AlexaFluor 633 substituted on AMP/GMP antibody and to calculate the PDE2 phosphodiesterase inhibitory IC50 value of the test compound. Test buffer solution: 10 mM Tris-HCl, pH 7.5, 5 mM MgCl2, 0.01% Brij 35, 1 mM DTT, and 1% DMSO. Enzyme: Full length human PDE2A protease expressed and recombined in insect Sf9 cells with baculovirus using N-terminal GST tag […] Transcreener® AMP^2/GMP^2 antibody, AMP2/GMP2 AlexaFluor 633 fluorescent dye The enzyme solution was prepared with freshly prepared buffer solution and then added to the reaction wells. The DMSO solution of the test compound was added by Echo550 non-contact nanoscale sonicate pipetting system and preincubated for 10 minutes at room temperature. The reaction was initiated by addition of substrate (1 μM cGMP) and allowed to react for one hour at room temperature. The detection system (Transcreener® AMP^2/GMP^2 antibody, AMP2/GMP2 AlexaFluor 633 fluorescent dye) was then added and reacted for 90 minutes at room temperature before fluorescence polarization was detected using Ex/Em 620/688. The intensity of fluorescence polarization was converted to nM concentration by the AMP/GMP standard curve and then relative inhibition of enzyme activity relative to DMSO blank was calculated. IC50 values and curves were calculated using the Prism software package (GraphPad Software, San Diego Calif., USA)

[3] = recombinant full length human PDE2A, substrate 1 μM cGMP, 1 hour at room temperature, read-out: PDE2 phosphodiesterase inhibitory activity

SMILES | IC50 [2, 3] [µM] | TNF-α inhibitory ratio [1] | inhibition at 100 µM [1] [%] | IC50 [2] [µM]
Cn1cnc2c1c(=O)n(CCCN1CCCC1=O)c(=O)n2C [Example 3, 3,7-Dimethyl-1-(3-(2-oxopyrrolidin-1-yl)propyl)-1H-purine-2,6(3H,7H)-dione] |  | — |  | 
Cc1cc(CCCCn2c(=O)c3c(ncn3C)n(C)c2=O)on1 [Example 19, 3,7-Dimethyl-1-(4-(3-methylisoxazol-5-yl)butyl)-1H-purine-2,6(3H,7H)-dione] |  | — |  | 10 to 50
Cc1cc(CCCCn2cnn3cnc(CC(C)C)c3c2=O)on1 [Example 82, 5-isobutyl-3-(4-(3-methylisoxazol-5-yl)butyl)imidazo[5,1-F] [1,2,4]triazin-4-one] | 1 to 10 |  | 60 to 80 | 
Cc1cc(C2CCC(n3c(=O)c4c(ncn4C)n(C)c3=O)CC2)on1 (centres unmarked) [Example 27, 3,7-Dimethyl-1-(4-(3-methylisoxazol-5-yl)cyclohexyl)-1H-purine-2,6(3H,7H)-dione] | 10 to 50 | — |  | 

More lines, main results first:

IC50 [2, 3] [µM] | SMILES | TNF-α inhibitory ratio [1] | inhibition at 100 µM [1] [%] | IC50 [2] [µM]
10 to 50 | Cc1cc(CCCCn2c(=O)c3cccnc3n(C)c2=O)on1 [Example 89, 1-Methyl-3-[4-(3-methylisoxazol-5-yl)butyl]pyrido[2,3-d]pyrimidine-2,4-dione] |  | > 80 | 
10 to 50 | Cc1noc(C)c1Cn1c(=O)c2c(ncn2C)n(C)c1=O [Example 25, 1-((3,5-Dimethylisoxazol-4-yl)methyl)-3,7-dimethyl-1H-purine-2,6(3H,7H)-dione] | — |  | 
1 to 10 | CC(C)c1cc(Cn2c(=O)c3c(ncn3CC3CC3)n(C)c2=O)on1 [Example 59, 7-(Cyclopropylmethyl)-1-((3-isopropylisoxazol-5-yl)methyl)-3-methyl-1H-purine-2,6(3H,7H)-dione] |  | > 80 | 
1 to 10 | Cc1nc(C)c(CCn2c(=O)c3c(ncn3C)n(C)c2=O)s1 [Example 31, 1-(2-(2,4-Dimethylthiazol-5-yl)ethyl)-3,7-dimethyl-1H-purine-2,6(3H,7H)-dione] | — |  | 
1 to 10 | CC(C)c1cc(Cn2c(=O)c3c(ncn3C)n(C)c2=O)on1 [Example 15, 1-((3-Isopropylisoxazol-5-yl)methyl)-3,7-dimethyl-1H-purine-2,6(3H,7H)-dione] |  | 60 to 80 | 
